We go through 37 molecules from patent publication US20030216398A1, “Soluble beta amyloid precursor protein secretion promoters” (priority 2002, published 2003).

In general, melting point refers to the temperature, or range, at which the solid turns liquid.

Structures are written as SMILES. Structures can show the parent of a compound that is named as a salt.

The molecule `COc1ccc(C(=O)N2CCC(Nc3ccccc3C(C)C)c3ccccc32)cc1OC.Cl` (stereo not shown) displayed a melting point of 93 to 96 °C.

`COc1ccc(C(=O)N2CCC(Nc3ccccc3Cl)c3ccc(Cl)cc32)cc1OC` (stereo not shown) (as salt: hydrochloride) [Example 51, 7-Chloro-N-(2-chlorophenyl)-1-(3,4-dimethoxybenzoyl)-1,2,3,4-tetrahydro-4-quinolinamine Hydrochloride] had a melting point of 74 to 76 °C.

On to `COc1ccc(C(=O)N2c3ccccc3[C@H](N(C)c3ccccc3)C[C@@H]2C)cc1OC` (racemic) [Example 28, cis-1-(3,4-Dimethoxybenzoyl)-N,2-dimethyl-N-phenyl-1,2,3,4-tetrahydro-4-quinolinamine], for which the melting point was 180 to 181 °C.

For the molecule `C[C@H]1C[C@@H](Nc2ccccc2)c2ccccc2N1C(=O)c1ccncc1` (relative stereo) (hydrate or solvate) [Example 3, cis-1-Isonicotinoyl-2-methyl-N-phenyl-1,2,3,4-tetrahydro-4-quinolinamine], the melting point came out at 210 °C.

Take `C[C@H]1C[C@@H](Nc2ccccc2)c2ccccc2N1C(=O)c1ccncc1` (relative stereo) [Example 3, cis-1-Isonicotinoyl-2-methyl-N-phenyl-1,2,3,4-tetrahydro-4-quinolinamine]: the melting point amounted to 121 °C.

Turning to `C[C@H]1C[C@@H](Nc2ccccc2)c2ccccc2N1C(=O)c1ccccn1` (relative stereo) [Example 4, cis-2-Methyl-N-phenyl-1-(2-pyridinylcarbonyl)-1,2,3,4-tetrahydro-4-quinolinamine], the melting point is 157 °C.

With `C[C@H]1C[C@H](Nc2ccccc2)c2ccccc2N1C(=O)c1ccc2c(c1)OCO2` (relative stereo) [Example 7, Trans-1-(1,3-Benzodioxol-5-ylcarbonyl)-2-methyl-N-phenyl-1,2,3,4-tetrahydro-4-quinolinamine], the melting point was 175 °C.

`COc1cc(C(=O)N2c3ccccc3[C@@H](Nc3ccccc3)C[C@@H]2C)cc(OC)c1OC` (relative stereo) [Example 8, Trans-2-Methyl-N-phenyl-1-(3,4,5-trimethoxybenzoyl)-1,2,3,4-tetrahydro-4-quinolinamine] showed a melting point of 205 °C.

The molecule `COc1ccc(C(=O)N2c3ccccc3[C@@H](Nc3cccc(C)n3)C[C@@H]2C)cc1OC` (relative stereo) [Example 13, Trans-1-(3,4-Dimethoxybenzoyl)-2-methyl-N-(6-methyl-2-pyridinyl)-1,2,3,4-tetrahydro-4-quinolinamine] returned a melting point of 184 to 186 °C.

Take `C[C@H]1C[C@H](Nc2ccccc2)c2ccccc2N1C(=O)c1ccc(Br)o1` (relative stereo) [Example 41, trans-1-(5-Bromo-2-furoyl)-2-methyl-N-phenyl-1,2,3,4-tetrahydro-4-quinolinamine]: the melting point was in the range of 117 to 118 °C.

`C[C@H]1C[C@@H](Nc2ccccc2)c2ccccc2N1C(=O)c1ccc(-c2ccc(Cl)cc2)cc1` (relative stereo) [Example 52, cis-1-[(4′-Chloro[1,1′-biphenyl]-4-yl)carbonyl]-2-methyl-N-phenyl-1,2,3,4-tetrahydro-4-quinolinamine] yielded a melting point of 193 to 194 °C.

`CC1CC(Nc2ccccc2)c2ccccc2N1C(=O)c1ccc2c(c1)OCO2` (stereo not drawn) [Example 5, cis-1-(1,3-Benzoxol-5-ylcarbonyl)-2-methyl-N-phenyl-1,2,3,4-tetrahydro-4-quinolinamine] came in with a melting point of 175 °C.

In the case of `COc1cc(C(=O)N2c3ccccc3C(Nc3ccccc3)CC2C)cc(OC)c1OC` (stereo not drawn) [Example 6, cis-2-Methyl-N-phenyl-1-(3,4,5-trimethoybenzoyl)-1,2,3,4-tetrahydro-4-quinolinamine], the melting point was determined as 300 °C.

With `COc1ccc(C(=O)N2c3ccccc3C(Nc3ccc(Br)cc3)CC2C)cc1OC` (stereo not shown) [Example 12, N-(4-Bromophenyl)-1-(3,4-dimethoxybenzoyl)-2-methyl-1,2,3,4-tetrahydro-4-quinolinamine], the melting point lay within 173 to 175 °C.

With `COc1ccc(C(=O)N2CCC(Nc3ccc(Cl)cc3)c3ccccc32)cc1OC` (stereo not shown) [Example 14, N-(4-chlorophenyl)-1-(3,4-dimethoxybenzoyl)-1,2,3,4-tetrahydro-4-quinolinamine], the melting point turned out to be 131 °C.

Regarding `COc1ccc(C(=O)N2CCC(Nc3ccccc3)c3ccccc32)cc1OC` (stereo not shown) [Example 17, 1-(3,4-Dimethoxybenzoyl)-N-phenyl-1,2,3,4-tetrahydro-4-quinolinamine], the melting point fell in the range of 155 to 156 °C.

In turn, `COc1ccc(C(=O)N2CCC(N(C)c3ccccc3)c3ccccc32)cc1OC` (stereo not shown) [Example 18, 1-(3,4-Dimethoxybenzoyl)-N-methyl-N-phenyl-1,2,3,4-tetrahydro-4-quinolinamine] registered a melting point of 143 to 144 °C.

In the case of `COc1ccc(C(=O)N2CCC(Oc3ccc(Br)cc3)c3ccccc32)cc1OC` (stereo not shown) [Example 19], the melting point was in the range of 56 to 57 °C.

For `COc1ccc(C(=O)N2CCN(Cc3ccccc3)c3ccccc32)cc1OC` [Example 20, 1-Benzyl-4-(3,4-dimethoxybenzoyl)-1,2,3,4-tetrahydroquinoxaline], the melting point lay within 111 to 112 °C.

Turning to `COc1ccc(C(=O)N2CCC(Nc3ccc4ncccc4c3)c3ccccc32)cc1OC` (stereo not shown) [Example 21, 1-(3,4-Dimethoxybenzoyl)-N-(6-quinolinyl)-1,2,3,4-tetrahydro-4-quinolinamine], the melting point was 116 to 118 °C.

As to `COc1ccc(C(=O)N2CCC(Nc3ccccn3)c3ccccc32)cc1OC` (stereo not shown) [Example 22, 1-(3,4-Dimethoxybenzoyl)-N-(2-pyridinyl)-1,2,3,4-tetrahydro-4-quinolinamine], the melting point is 156 to 157 °C.

In turn, `COc1ccc(C(=O)N2CCC(Nc3ccccc3Cl)c3ccccc32)cc1OC` (stereo not shown) [Example 23, N-(2-Chlorophenyl)-1-(3,4-dimethoxybenzoyl)-1,2,3,4-tetrahydro-4-quinolinamine] came in with a melting point of 92 to 93 °C.

In the case of `COc1ccc(C(=O)N2CCC(Nc3ccccc3F)c3ccccc32)cc1OC` (stereo not shown) [Example 24, 1-(3,4-Dimethoxybenzoyl)-N-(2-fluorophenyl)-1,2,3,4-tetrahydro-4-quinolinamine], the melting point is 133 to 134 °C.

The molecule `COc1ccc(C(=O)N2CCC(N(C)c3ccccc3C)c3ccccc32)cc1OC` (stereo not shown) [Example 25, 1-(3,4-Dimethoxybenzoyl)-N-methyl-N-(2-methylphenyl)-1,2,3,4-tetrahydro-4-quinolinamine] had a melting point of 170 to 171 °C.

In turn, `COc1ccc(C(=O)N2CCC(Nc3c(Cl)cccc3Cl)c3ccccc32)cc1OC` (stereo not shown) [Example 26, N-(2,6-Dichlorophenyl)-1-(3,4-dimethoxybenzoyl)-1,2,3,4-tetrahydro-4-quinolinamine] had a melting point of 154 to 156 °C.

Molecule `COc1ccc(C(=O)N2c3ccccc3C(Nc3ccccc3Cl)CC2C)cc1OC` (stereo not shown) [Example 27, N-(2-Chlorophenyl)-1-(3,4-dimethoxybenzoyl)-2-methyl-1,2,3,4-tetrahydro-4-quinolinamine] showed a melting point of 148 to 150 °C.

Molecule `COc1ccc(C(=O)N2CCC(Nc3ccc4c(c3)OCO4)c3ccccc32)cc1OC` (stereo not shown) [Example 31, N-(1,3-Benzodioxol-5-yl)-1-(3,4-dimethoxybenzoyl)-1,2,3,4-tetrahydro-4-quinolinamine] displayed a melting point of 135 to 136 °C.

As for `COc1ccc(C(=O)N2CCC(Nc3cccc(Cl)c3)c3ccccc32)cc1OC` (stereo not shown) [Example 32, N-(3-Chlorophenyl)-1-(3,4-dimethoxybenzoyl)-1,2,3,4-tetrahydro-4-quinolinamine], the melting point was 160 °C.

Regarding `COc1ccc(C(=O)N2CCC(Nc3ccc(Br)cc3)c3ccccc32)cc1OC` (stereo not shown) [Example 34, N-(4-Bromophenyl)-1-(3,4-dimethoxybenzoyl)-1,2,3,4-tetrahydro-4-quinolinamine], the melting point was determined as 130 °C.

In turn, `COc1ccc(C(=O)N2CCC(N(C)c3ccccc3Cl)c3ccccc32)cc1OC` (stereo not shown) [Example 35, N-(2-Chlorophenyl)-1-(3,4-dimethoxybenzoyl)-N-methyl-1,2,3,4-tetrahydro-4-quinolinamine] registered a melting point of 146 to 147 °C.

For the molecule `COc1ccc(C(=O)N2CCC(N(C)c3ccc(Cl)cc3)c3ccccc32)cc1OC` (stereo not shown) [Example 36, N-(4-Chlorophenyl)-1-(3,4-dimethoxybenzoyl)-N-methyl-1,2,3,4-tetrahydro-4-quinolinamine], the melting point was in the range of 72 to 74 °C.

Molecule `COc1ccc(C(=O)N2CCC(N(C)c3ccc(Br)cc3)c3ccccc32)cc1OC` (stereo not shown) [Example 37, N-(4-Bromophenyl)-1-(3,4-dimethoxybenzoyl)-N-methyl-1,2,3,4-tetrahydro-4-quinolinamine] gave a melting point of 73 to 74 °C.

In the case of `COc1ccc(C(=O)N2CCC(Nc3ccc(C)c(Cl)c3)c3ccccc32)cc1OC` (stereo not shown) [Example 38, N-(3-Chloro-4-methylphenyl)-1-(3,4-dimethoxybenzoyl)-1,2,3,4-tetrahydro-4-quinolinamine], the melting point lay in the range of 94 to 96 °C.

For the molecule `COc1ccc(C(=O)N2CCC(Nc3ccccc3Cl)c3cc(Cl)ccc32)cc1OC` (stereo not shown) [Example 39, 6-Chloro-N-(2-chlorophenyl)-1-(3,4-dimethoxybenzoyl)-1,2,3,4-tetrahydro-4-quinolinamine], the melting point fell in the range of 87 to 89 °C.

In the case of `COc1ccc(C(=O)N2CCN(Cc3ccc(-c4ccccc4)cc3)c3ccccc32)cc1OC` [Example 42, 1-([1,1′-Biphenyl]-4-ylmethyl)-4-(3,4-dimethoxybenzoyl)-1,2,3,4-tetrahydroquinoxaline], the melting point was 133 to 134 °C.

`COc1ccc(C(=O)N2c3ccccc3C(Nc3ccc(Cl)cc3Cl)CC2C)cc1OC` (stereo not shown) [Example 43, N-(2,4-Dichlorophenyl)-1-(3,4-dimethoxybenzoyl)-2-methyl-1,2,3,4-tetrahydro-4-quinolinamine] came in with a melting point of 165 to 167 °C.

As for `COc1ccc(C(=O)N2CCC(Nc3ccc(Cl)cc3)c3cc(Cl)ccc32)cc1OC` (stereo not shown) [Example 47, 6-Chloro-N-(4-chlorophenyl)-1-(3,4-dimethoxybenzoyl)-1,2,3,4-tetrahydro-4-quinolinamine], the melting point was 176 to 178 °C.
